Laboratory results published in patent US8901133B2, “Heterocyclic compounds and uses thereof” (Infinity Pharmaceuticals, Inc., priority 2010, dated 2014).

target: T1, PI3Kα (Homo sapiens, UniProt P42336); test: PI3 Kinase HTRF assay, PI3Kα; format: biochemical; conditions: 10 μM PIP2, 10 μM ATP; read-out: PI3K α IC50
T1 construct: purchased Millipore Corporation 14-602-K
Description: (§1) A PI3 Kinase HTRF® assay kit (cat No. 33-016) purchased from Millipore Corporation was used to screen compounds disclosed herein. This assay used specific, high affinity binding of the GRP1 pleckstrin homology (PH) domain to PIP3, the product of a Class 1A or 1B PI3 Kinase acting on its physiological substrate PIP2. During the detection phase of the assay, a complex was generated between the GST-tagged PH domain and biotinylated short chain PIP3. The biotinylated PIP3 and the GST-tagged PH domain recruited fluorophores (Streptavidin-Allophycocyanin and Europium-labeled anti-GST respectively) to form the fluorescence resonance energy transfer (FRET) architecture, generating a stable time-resolved FRET signal. The FRET complex was disrupted in a competitive manner by non-biotinylated PIP3, a product formed in the PI3 Kinase assay.
(§2) PI3 Kinase α, β, γ and δ activity was assayed using the PI3 Kinase HTRF® assay kit (catalogue No. 33-016) purchased from Millipore Corporation. Purified recombinant PI3Kα (catalogue No. 14-602-K), PI3Kβ (catalogue No. 14-603-K), PI3Kγ (catalogue No. 14-558-K) and PI3Kδ (catalogue No. 14-604-K) were obtained from Millipore Corporation. Purified recombinant PI3K enzyme was used to catalyze the phosphorylation of phosphatidylinositol 4,5-bisphosphate (PIP2 at 10 μM) to phosphatidylinositol 3,4,5-trisphosphate (PIP3) in the presence of 10 μM ATP. The assay was carried out in 384-well format and detected using a Perkin Elmer En Vision Xcite Multilabel Reader. Emission ratios were converted into percent inhibitions and imported into GraphPad Prism software. The concentration necessary to achieve inhibition of enzyme activity by 50% (IC50) was calculated using concentrations ranging from 20 μM to 0.1 nM (12-point curve). IC50 values were determined using a nonlinear regression model available in GraphPad Prism 5. […]

T1 sequence (P42336 whole entry): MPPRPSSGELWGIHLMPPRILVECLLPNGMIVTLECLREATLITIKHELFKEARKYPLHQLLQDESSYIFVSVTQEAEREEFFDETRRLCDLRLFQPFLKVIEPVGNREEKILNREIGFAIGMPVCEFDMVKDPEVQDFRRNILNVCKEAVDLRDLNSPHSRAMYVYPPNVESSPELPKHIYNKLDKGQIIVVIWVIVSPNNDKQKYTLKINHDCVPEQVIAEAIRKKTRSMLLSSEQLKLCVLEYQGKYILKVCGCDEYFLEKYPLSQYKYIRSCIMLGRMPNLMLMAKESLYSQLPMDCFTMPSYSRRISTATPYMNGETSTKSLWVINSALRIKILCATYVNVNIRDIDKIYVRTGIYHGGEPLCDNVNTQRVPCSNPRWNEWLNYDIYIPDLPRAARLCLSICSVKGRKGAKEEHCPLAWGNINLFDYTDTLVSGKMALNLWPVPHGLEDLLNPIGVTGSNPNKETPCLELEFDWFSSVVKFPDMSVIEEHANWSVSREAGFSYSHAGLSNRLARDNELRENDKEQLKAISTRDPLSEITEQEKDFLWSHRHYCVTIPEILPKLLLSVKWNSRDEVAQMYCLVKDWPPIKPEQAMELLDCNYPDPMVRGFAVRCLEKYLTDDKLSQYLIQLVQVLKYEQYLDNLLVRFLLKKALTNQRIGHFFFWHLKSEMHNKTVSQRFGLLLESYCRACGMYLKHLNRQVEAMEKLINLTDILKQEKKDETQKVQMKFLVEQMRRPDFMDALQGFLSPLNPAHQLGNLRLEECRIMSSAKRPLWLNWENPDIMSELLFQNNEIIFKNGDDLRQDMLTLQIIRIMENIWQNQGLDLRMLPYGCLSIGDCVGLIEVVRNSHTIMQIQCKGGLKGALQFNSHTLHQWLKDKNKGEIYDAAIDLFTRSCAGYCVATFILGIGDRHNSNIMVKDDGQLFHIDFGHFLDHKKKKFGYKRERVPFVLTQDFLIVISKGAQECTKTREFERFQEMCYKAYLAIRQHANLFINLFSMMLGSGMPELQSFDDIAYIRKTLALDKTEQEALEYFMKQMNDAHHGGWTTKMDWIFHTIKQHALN
T1 sequence (P27986 whole entry partner): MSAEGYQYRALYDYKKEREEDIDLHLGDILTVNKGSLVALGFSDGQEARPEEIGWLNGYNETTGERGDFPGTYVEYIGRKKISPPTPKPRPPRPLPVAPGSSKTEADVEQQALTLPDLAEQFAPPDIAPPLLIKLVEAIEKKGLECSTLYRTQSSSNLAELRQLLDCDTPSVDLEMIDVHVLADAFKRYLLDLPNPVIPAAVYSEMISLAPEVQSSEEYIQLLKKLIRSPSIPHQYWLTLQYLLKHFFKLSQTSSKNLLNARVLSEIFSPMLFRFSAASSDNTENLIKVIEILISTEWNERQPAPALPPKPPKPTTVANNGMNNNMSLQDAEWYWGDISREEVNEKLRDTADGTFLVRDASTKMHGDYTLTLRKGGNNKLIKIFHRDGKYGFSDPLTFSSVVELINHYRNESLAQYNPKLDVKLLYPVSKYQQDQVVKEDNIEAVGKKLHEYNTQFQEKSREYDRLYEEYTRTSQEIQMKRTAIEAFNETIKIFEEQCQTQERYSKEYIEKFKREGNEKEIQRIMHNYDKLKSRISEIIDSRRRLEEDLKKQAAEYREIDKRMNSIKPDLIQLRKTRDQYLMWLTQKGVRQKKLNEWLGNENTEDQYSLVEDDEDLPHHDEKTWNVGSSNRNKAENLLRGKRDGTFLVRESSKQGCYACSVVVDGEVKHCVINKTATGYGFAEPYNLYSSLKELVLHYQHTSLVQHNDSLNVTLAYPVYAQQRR

First: C[C@H](Nc1ncnc2[nH]cnc12)c1cc2cccc(-c3cnn(C)c3)c2c(N2CCN(C)CC2)n1 [Compound 142]
Second: Cc1nc([C@H](C)Nc2ncnc3[nH]cnc23)cc2cccc(-c3cnn(C)c3)c12 [Compound 171]
The IC50 of the first is higher: greater than 10 µM for the first, less than 10 µM for the second. The second is the more potent here.

Compared with `C[C@H](Nc1ncnc2cccnc12)c1cc2cccc(Cl)c2c(C(=O)NC2CCOCC2)n1` [Compound 143], `C[C@H](Nc1ncnc2cccnc12)c1cc2cccc(-c3cnn(C)c3)c2c(C(=O)N2CCOCC2)n1` [Compound 187] is lower in IC50: greater than 10 µM for the first, less than 10 µM for the second.

`Cc1cccc2cc([C@H](C)Nc3ncnc4[nH]cnc34)nc(C(=O)N3CCOCC3)c12` [Compound 147] and `Cc1nc([C@H](C)Nc2ncnc3[nH]cnc23)cc2cccc(C(=O)N3CCOCC3)c12` [Compound 198] cannot be ordered by IC50: greater than 10 µM for the first, greater than 10 µM for the second.

`C[C@H](Nc1ncnc2cccnc12)c1cc2cccc(-c3cnn(C)c3)c2c(OCCN2CCCC2)n1` [Compound 148] and `C[C@H](Nc1ncnc2cccnc12)c1cc2cccc(-c3cnn(C)c3)c2c(CCN2CCOCC2)n1` [Compound 154] cannot be ordered by IC50: less than 10 µM for the first, less than 10 µM for the second.

`C[C@H](Nc1ncnc2[nH]cnc12)c1cc2cccc(-c3cnn(C)c3)c2c(CCN2CCOCC2)n1` [Compound 157] and `C[C@H](Nc1ncnc2[nH]cnc12)c1cc2cccc(-c3cnn(C)c3)c2c(Cl)n1` [Compound 193] cannot be ordered by IC50: greater than 10 µM for the first, greater than 10 µM for the second.

`Cc1nc([C@H](C)Nc2ncnc3[nH]cnc23)cc2cccc(-c3cccnc3)c12` [Compound 170] and `Cc1nc([C@H](C)Nc2ncnc3[nH]cnc23)cc2cccc(C(=O)N3CCN(C)CC3)c12` [Compound 202] cannot be ordered by IC50: greater than 10 µM for the first, greater than 10 µM for the second.

First: C[C@H](Nc1ccnc2ccnn12)c1cc2cccc(Cl)c2c(OC2CCN(S(C)(=O)=O)CC2)n1 [Compound 174]
Second: C[C@H](Nc1ncnc2[nH]cc(C#N)c12)c1cc2cccc(Cl)c2c(C(=O)N2CCOCC2)n1 [Compound 203]
The IC50 of the first is higher: greater than 10 µM for the first, less than 10 µM for the second.

`Cc1nc([C@H](C)Nc2ncnc3[nH]cnc23)cc2cccc(C(=O)N3C4CCC3COC4)c12` [Compound 199] and `C[C@H](Nc1ncnc2[nH]cnc12)c1cc2cccc(-c3cnn(C)c3)c2c(C(=O)N2C3CCC2COC3)n1` [Compound 201] cannot be ordered by IC50: greater than 10 µM for the first, greater than 10 µM for the second.

For `C[C@H](Nc1ncnc2cccnc12)c1cc2cccc(-c3cnn(C)c3)c2c(C(=O)N2C3CCC2COC3)n1` [Compound 200], the IC50 was greater than 10 µM.

target: T2, PI3Kδ (Homo sapiens, UniProt O00329); test: PI3 Kinase HTRF assay, PI3Kδ; format: biochemical; conditions: 10 μM PIP2, 10 μM ATP; read-out: PI3K δ IC50
T2 construct: purchased Millipore Corporation 14-604-K
T2 sequence (O00329 whole entry): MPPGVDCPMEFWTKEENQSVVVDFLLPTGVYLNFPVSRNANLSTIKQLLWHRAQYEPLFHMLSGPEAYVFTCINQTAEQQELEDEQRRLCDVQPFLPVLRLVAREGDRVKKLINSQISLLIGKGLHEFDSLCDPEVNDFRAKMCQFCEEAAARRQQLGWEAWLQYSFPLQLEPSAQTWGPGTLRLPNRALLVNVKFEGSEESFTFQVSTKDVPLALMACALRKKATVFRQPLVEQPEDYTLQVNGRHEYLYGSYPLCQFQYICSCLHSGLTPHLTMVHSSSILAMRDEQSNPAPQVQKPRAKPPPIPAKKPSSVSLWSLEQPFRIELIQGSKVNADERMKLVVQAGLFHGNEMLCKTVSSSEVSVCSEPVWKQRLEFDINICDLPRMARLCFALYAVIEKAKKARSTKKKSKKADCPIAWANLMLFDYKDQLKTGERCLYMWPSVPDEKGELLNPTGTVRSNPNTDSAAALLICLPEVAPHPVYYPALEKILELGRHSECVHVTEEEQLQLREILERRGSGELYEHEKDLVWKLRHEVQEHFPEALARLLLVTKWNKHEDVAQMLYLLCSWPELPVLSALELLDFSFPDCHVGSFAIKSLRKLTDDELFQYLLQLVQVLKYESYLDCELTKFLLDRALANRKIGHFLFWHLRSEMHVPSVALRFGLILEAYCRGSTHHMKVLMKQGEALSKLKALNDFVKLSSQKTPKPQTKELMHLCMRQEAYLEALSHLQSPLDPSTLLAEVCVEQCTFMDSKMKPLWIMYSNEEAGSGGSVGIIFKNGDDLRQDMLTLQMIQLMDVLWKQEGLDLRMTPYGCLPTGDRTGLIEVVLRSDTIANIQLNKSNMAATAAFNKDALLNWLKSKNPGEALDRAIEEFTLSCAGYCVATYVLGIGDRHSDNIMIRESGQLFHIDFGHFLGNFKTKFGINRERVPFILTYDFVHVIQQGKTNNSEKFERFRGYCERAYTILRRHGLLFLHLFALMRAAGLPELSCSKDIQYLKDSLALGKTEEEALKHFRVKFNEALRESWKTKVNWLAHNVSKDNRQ
T2 sequence (P27986 whole entry partner): as the sequence (P27986 whole entry partner) above
Description: as §1, §2

`C[C@H](Nc1ncnc2[nH]cnc12)c1cc2cccc(-c3cnn(C)c3)c2c(N2CCN(C)CC2)n1` [Compound 142] and `Cc1nc([C@H](C)Nc2ncnc3[nH]cnc23)cc2cccc(-c3cnn(C)c3)c12` [Compound 171] cannot be ordered by IC50: less than 1000 nM for the first, less than 100 nM for the second.

`C[C@H](Nc1ncnc2cccnc12)c1cc2cccc(Cl)c2c(C(=O)NC2CCOCC2)n1` [Compound 143] and `C[C@H](Nc1ncnc2cccnc12)c1cc2cccc(-c3cnn(C)c3)c2c(C(=O)N2CCOCC2)n1` [Compound 187] cannot be ordered by IC50: less than 1000 nM for the first, less than 1000 nM for the second.

`Cc1cccc2cc([C@H](C)Nc3ncnc4[nH]cnc34)nc(C(=O)N3CCOCC3)c12` [Compound 147] and `Cc1nc([C@H](C)Nc2ncnc3[nH]cnc23)cc2cccc(C(=O)N3CCOCC3)c12` [Compound 198] cannot be ordered by IC50: less than 1000 nM for the first, less than 1000 nM for the second.

`C[C@H](Nc1ncnc2cccnc12)c1cc2cccc(-c3cnn(C)c3)c2c(OCCN2CCCC2)n1` [Compound 148] and `C[C@H](Nc1ncnc2cccnc12)c1cc2cccc(-c3cnn(C)c3)c2c(CCN2CCOCC2)n1` [Compound 154] cannot be ordered by IC50: less than 1000 nM for the first, less than 1000 nM for the second.

`C[C@H](Nc1ncnc2[nH]cnc12)c1cc2cccc(-c3cnn(C)c3)c2c(CCN2CCOCC2)n1` [Compound 157] and `C[C@H](Nc1ncnc2[nH]cnc12)c1cc2cccc(-c3cnn(C)c3)c2c(Cl)n1` [Compound 193] cannot be ordered by IC50: less than 1000 nM for the first, less than 100 nM for the second.

Compared with `Cc1nc([C@H](C)Nc2ncnc3[nH]cnc23)cc2cccc(-c3cccnc3)c12` [Compound 170], `Cc1nc([C@H](C)Nc2ncnc3[nH]cnc23)cc2cccc(C(=O)N3CCN(C)CC3)c12` [Compound 202] is higher in IC50: less than 100 nM for the first, greater than 10000 nM for the second.

`C[C@H](Nc1ccnc2ccnn12)c1cc2cccc(Cl)c2c(OC2CCN(S(C)(=O)=O)CC2)n1` [Compound 174] and `C[C@H](Nc1ncnc2[nH]cc(C#N)c12)c1cc2cccc(Cl)c2c(C(=O)N2CCOCC2)n1` [Compound 203] cannot be ordered by IC50: less than 1000 nM for the first, less than 100 nM for the second.

`Cc1nc([C@H](C)Nc2ncnc3[nH]cnc23)cc2cccc(C(=O)N3C4CCC3COC4)c12` [Compound 199] and `C[C@H](Nc1ncnc2[nH]cnc12)c1cc2cccc(-c3cnn(C)c3)c2c(C(=O)N2C3CCC2COC3)n1` [Compound 201] cannot be ordered by IC50: less than 10000 nM for the first, less than 100 nM for the second.

`C[C@H](Nc1ncnc2cccnc12)c1cc2cccc(-c3cnn(C)c3)c2c(C(=O)N2C3CCC2COC3)n1` [Compound 200] was tested, and the IC50 was less than 1000 nM.

target: T3, PI3Kγ (Homo sapiens, UniProt P48736); test: PI3 Kinase HTRF assay, PI3Kγ; format: biochemical; conditions: 10 μM PIP2, 10 μM ATP; read-out: PI3K γ IC50
T3 construct: purchased Millipore Corporation 14-558-K
T3 sequence (P48736 whole entry): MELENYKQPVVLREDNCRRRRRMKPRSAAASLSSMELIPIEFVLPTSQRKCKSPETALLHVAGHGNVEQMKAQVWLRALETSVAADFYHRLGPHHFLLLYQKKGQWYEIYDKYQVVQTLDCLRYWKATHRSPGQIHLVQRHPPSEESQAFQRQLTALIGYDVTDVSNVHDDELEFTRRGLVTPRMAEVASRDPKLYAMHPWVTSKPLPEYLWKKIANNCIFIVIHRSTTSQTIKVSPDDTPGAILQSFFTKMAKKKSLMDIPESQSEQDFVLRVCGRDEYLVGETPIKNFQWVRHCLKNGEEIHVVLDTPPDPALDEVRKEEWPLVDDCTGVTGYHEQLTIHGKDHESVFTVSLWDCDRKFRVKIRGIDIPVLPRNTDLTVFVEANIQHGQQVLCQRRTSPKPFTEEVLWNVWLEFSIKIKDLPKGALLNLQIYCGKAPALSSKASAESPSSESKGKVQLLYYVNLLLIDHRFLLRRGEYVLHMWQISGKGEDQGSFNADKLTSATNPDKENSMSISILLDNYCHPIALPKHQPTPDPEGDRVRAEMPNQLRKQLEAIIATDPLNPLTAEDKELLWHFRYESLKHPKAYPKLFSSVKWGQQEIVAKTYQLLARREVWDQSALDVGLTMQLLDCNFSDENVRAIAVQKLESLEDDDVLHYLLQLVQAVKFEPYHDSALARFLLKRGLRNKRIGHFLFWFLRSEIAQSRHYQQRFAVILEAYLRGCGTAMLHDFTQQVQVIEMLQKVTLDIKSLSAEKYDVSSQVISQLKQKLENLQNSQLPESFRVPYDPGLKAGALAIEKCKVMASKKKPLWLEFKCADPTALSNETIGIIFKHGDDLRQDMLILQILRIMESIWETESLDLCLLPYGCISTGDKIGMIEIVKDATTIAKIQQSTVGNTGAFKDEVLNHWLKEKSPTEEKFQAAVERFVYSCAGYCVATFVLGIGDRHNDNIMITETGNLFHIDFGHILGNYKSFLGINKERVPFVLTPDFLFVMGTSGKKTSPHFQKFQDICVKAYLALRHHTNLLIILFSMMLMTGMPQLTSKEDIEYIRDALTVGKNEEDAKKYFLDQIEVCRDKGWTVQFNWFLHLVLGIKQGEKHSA
Description: as §1, §2

Going from `C[C@H](Nc1ncnc2[nH]cnc12)c1cc2cccc(-c3cnn(C)c3)c2c(N2CCN(C)CC2)n1` [Compound 142] to `Cc1nc([C@H](C)Nc2ncnc3[nH]cnc23)cc2cccc(-c3cnn(C)c3)c12` [Compound 171], the IC50 falls from greater than 10 µM to less than 10 µM. The second is the more potent here.

`C[C@H](Nc1ncnc2cccnc12)c1cc2cccc(Cl)c2c(C(=O)NC2CCOCC2)n1` [Compound 143] and `C[C@H](Nc1ncnc2cccnc12)c1cc2cccc(-c3cnn(C)c3)c2c(C(=O)N2CCOCC2)n1` [Compound 187] cannot be ordered by IC50: less than 10 µM for the first, less than 10 µM for the second.

First: Cc1cccc2cc([C@H](C)Nc3ncnc4[nH]cnc34)nc(C(=O)N3CCOCC3)c12 [Compound 147]
Second: Cc1nc([C@H](C)Nc2ncnc3[nH]cnc23)cc2cccc(C(=O)N3CCOCC3)c12 [Compound 198]
The IC50 of the first is lower: less than 10 µM for the first, greater than 10 µM for the second. The first is the more potent here.

`C[C@H](Nc1ncnc2cccnc12)c1cc2cccc(-c3cnn(C)c3)c2c(OCCN2CCCC2)n1` [Compound 148] and `C[C@H](Nc1ncnc2cccnc12)c1cc2cccc(-c3cnn(C)c3)c2c(CCN2CCOCC2)n1` [Compound 154] cannot be ordered by IC50: less than 10 µM for the first, less than 10 µM for the second.

`C[C@H](Nc1ncnc2[nH]cnc12)c1cc2cccc(-c3cnn(C)c3)c2c(CCN2CCOCC2)n1` [Compound 157] and `C[C@H](Nc1ncnc2[nH]cnc12)c1cc2cccc(-c3cnn(C)c3)c2c(Cl)n1` [Compound 193] cannot be ordered by IC50: less than 10 µM for the first, less than 1 µM for the second.

First: Cc1nc([C@H](C)Nc2ncnc3[nH]cnc23)cc2cccc(-c3cccnc3)c12 [Compound 170]
Second: Cc1nc([C@H](C)Nc2ncnc3[nH]cnc23)cc2cccc(C(=O)N3CCN(C)CC3)c12 [Compound 202]
The IC50 of the first is lower: less than 10 µM for the first, greater than 10 µM for the second. The first is the more potent here.

First: C[C@H](Nc1ccnc2ccnn12)c1cc2cccc(Cl)c2c(OC2CCN(S(C)(=O)=O)CC2)n1 [Compound 174]
Second: C[C@H](Nc1ncnc2[nH]cc(C#N)c12)c1cc2cccc(Cl)c2c(C(=O)N2CCOCC2)n1 [Compound 203]
The IC50 of the first is higher: greater than 10 µM for the first, less than 1 µM for the second. The second is the more potent here.

Going from `Cc1nc([C@H](C)Nc2ncnc3[nH]cnc23)cc2cccc(C(=O)N3C4CCC3COC4)c12` [Compound 199] to `C[C@H](Nc1ncnc2[nH]cnc12)c1cc2cccc(-c3cnn(C)c3)c2c(C(=O)N2C3CCC2COC3)n1` [Compound 201], the IC50 falls from greater than 10 µM to less than 1 µM. The second is the more potent here.

`C[C@H](Nc1ncnc2cccnc12)c1cc2cccc(-c3cnn(C)c3)c2c(C(=O)N2C3CCC2COC3)n1` [Compound 200] gave an IC50 greater than 10 µM.

target: T4, PI3Kβ (Homo sapiens, UniProt P42338); test: PI3 Kinase HTRF assay, PI3Kβ; format: biochemical; conditions: 10 μM PIP2, 10 μM ATP; read-out: PI3K β IC50
T4 construct: purchased Millipore Corporation 14-603-K
T4 sequence (P42338 whole entry): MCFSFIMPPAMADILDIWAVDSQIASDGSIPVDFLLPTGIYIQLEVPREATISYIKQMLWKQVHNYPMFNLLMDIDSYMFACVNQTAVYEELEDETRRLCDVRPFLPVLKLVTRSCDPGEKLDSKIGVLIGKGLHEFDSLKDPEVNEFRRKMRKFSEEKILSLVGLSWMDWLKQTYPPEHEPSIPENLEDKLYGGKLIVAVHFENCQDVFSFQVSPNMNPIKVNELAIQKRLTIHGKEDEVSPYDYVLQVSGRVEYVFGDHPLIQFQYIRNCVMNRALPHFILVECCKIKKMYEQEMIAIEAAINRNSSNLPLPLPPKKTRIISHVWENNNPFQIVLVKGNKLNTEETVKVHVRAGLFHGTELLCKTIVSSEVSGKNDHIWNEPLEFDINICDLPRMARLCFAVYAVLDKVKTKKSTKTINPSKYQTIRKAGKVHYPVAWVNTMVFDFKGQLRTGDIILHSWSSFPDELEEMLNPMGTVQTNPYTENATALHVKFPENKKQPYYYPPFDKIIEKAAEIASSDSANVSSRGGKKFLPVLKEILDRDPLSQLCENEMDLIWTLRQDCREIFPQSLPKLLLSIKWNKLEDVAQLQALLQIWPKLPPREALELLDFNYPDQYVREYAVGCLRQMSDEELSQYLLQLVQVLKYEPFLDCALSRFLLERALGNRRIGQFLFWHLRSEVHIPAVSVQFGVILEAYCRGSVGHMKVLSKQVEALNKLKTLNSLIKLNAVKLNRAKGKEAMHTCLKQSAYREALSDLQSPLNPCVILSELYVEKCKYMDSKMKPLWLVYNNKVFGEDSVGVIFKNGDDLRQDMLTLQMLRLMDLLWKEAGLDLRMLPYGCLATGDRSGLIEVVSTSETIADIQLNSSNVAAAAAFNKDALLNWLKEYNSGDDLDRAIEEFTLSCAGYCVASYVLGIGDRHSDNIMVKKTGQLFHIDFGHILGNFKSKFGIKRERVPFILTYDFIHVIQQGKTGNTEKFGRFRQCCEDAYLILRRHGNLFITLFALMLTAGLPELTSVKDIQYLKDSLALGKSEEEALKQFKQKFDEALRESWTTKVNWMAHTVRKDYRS
T4 sequence (P27986 whole entry partner): as the sequence (P27986 whole entry partner) above
Description: as §1, §2

Going from `C[C@H](Nc1ncnc2[nH]cnc12)c1cc2cccc(-c3cnn(C)c3)c2c(N2CCN(C)CC2)n1` [Compound 142] to `Cc1nc([C@H](C)Nc2ncnc3[nH]cnc23)cc2cccc(-c3cnn(C)c3)c12` [Compound 171], the IC50 rises from less than 10 µM to greater than 10 µM.

`C[C@H](Nc1ncnc2cccnc12)c1cc2cccc(Cl)c2c(C(=O)NC2CCOCC2)n1` [Compound 143] and `C[C@H](Nc1ncnc2cccnc12)c1cc2cccc(-c3cnn(C)c3)c2c(C(=O)N2CCOCC2)n1` [Compound 187] cannot be ordered by IC50: greater than 10 µM for the first, greater than 10 µM for the second.

`Cc1cccc2cc([C@H](C)Nc3ncnc4[nH]cnc34)nc(C(=O)N3CCOCC3)c12` [Compound 147] and `Cc1nc([C@H](C)Nc2ncnc3[nH]cnc23)cc2cccc(C(=O)N3CCOCC3)c12` [Compound 198] cannot be ordered by IC50: greater than 10 µM for the first, greater than 10 µM for the second.

`C[C@H](Nc1ncnc2cccnc12)c1cc2cccc(-c3cnn(C)c3)c2c(OCCN2CCCC2)n1` [Compound 148] and `C[C@H](Nc1ncnc2cccnc12)c1cc2cccc(-c3cnn(C)c3)c2c(CCN2CCOCC2)n1` [Compound 154] cannot be ordered by IC50: greater than 10 µM for the first, greater than 10 µM for the second.

`C[C@H](Nc1ncnc2[nH]cnc12)c1cc2cccc(-c3cnn(C)c3)c2c(CCN2CCOCC2)n1` [Compound 157] and `C[C@H](Nc1ncnc2[nH]cnc12)c1cc2cccc(-c3cnn(C)c3)c2c(Cl)n1` [Compound 193] cannot be ordered by IC50: greater than 10 µM for the first, greater than 10 µM for the second.

`Cc1nc([C@H](C)Nc2ncnc3[nH]cnc23)cc2cccc(-c3cccnc3)c12` [Compound 170] and `Cc1nc([C@H](C)Nc2ncnc3[nH]cnc23)cc2cccc(C(=O)N3CCN(C)CC3)c12` [Compound 202] cannot be ordered by IC50: greater than 10 µM for the first, greater than 10 µM for the second.

`C[C@H](Nc1ccnc2ccnn12)c1cc2cccc(Cl)c2c(OC2CCN(S(C)(=O)=O)CC2)n1` [Compound 174] and `C[C@H](Nc1ncnc2[nH]cc(C#N)c12)c1cc2cccc(Cl)c2c(C(=O)N2CCOCC2)n1` [Compound 203] cannot be ordered by IC50: less than 10 µM for the first, less than 10 µM for the second.

`Cc1nc([C@H](C)Nc2ncnc3[nH]cnc23)cc2cccc(C(=O)N3C4CCC3COC4)c12` [Compound 199] and `C[C@H](Nc1ncnc2[nH]cnc12)c1cc2cccc(-c3cnn(C)c3)c2c(C(=O)N2C3CCC2COC3)n1` [Compound 201] cannot be ordered by IC50: greater than 10 µM for the first, greater than 10 µM for the second.

`C[C@H](Nc1ncnc2cccnc12)c1cc2cccc(-c3cnn(C)c3)c2c(C(=O)N2C3CCC2COC3)n1` [Compound 200] showed an IC50 greater than 10 µM.
